Measurements reported in patent publication US20220175954A1, “HYPOXIA-INDUCING CRYOGELS” (priority 2019, published 2022).

Columns and labels:
4T1 breast cancer cells = test: Cancer cell viability under chemotherapeutic drugs in blank cryogels or HICs; type: cell-based; settings: for IC50: Mus musculus
Description: IC50 was calculated using a linear regression in the linear part of each curve (Y=mX+n with Y=50 and X=IC50). Data are representative of n=6 samples per set of conditions.
(§1) Data are representative of n=6 samples per set of conditions.
(§2) The capacity of HICs to prevent cancer cell death when exposed to chemotherapeutic drugs was analyzed. 4T1 breast cancer cells or B16-F10 melanoma cells were cultured in normoxia within blank cryogels or HICs and treated with several concentrations of doxorubicin or cisplatin (0.1-100 μM) for 24 h, 48 h, or 72 h. Both 4T1 (FIGS. 24 and 25) and B16-F10 (FIGS. 26 and 27) cells within blank cryogels were sensitive to doxorubicin treatment. […] HICs induced up to 100-fold increase in cancer cell resistance to cisplatin after 72 h compared to blank cryogels.

B16-F10 melanoma cells = test: as above; type: cell-based; settings: for IC50: Mus musculus
Description: as §1, §2

[1] = after 72 h, stated for 4T1 and B16-F10 together

Row | IC50 (4T1 breast cancer cells; 4T1, 24 h, 4T1 cells in HICs, 24 h) [µM] | IC50 (4T1 breast cancer cells; 4T1, 24 h, 4T1 cells within blank cryogels, 24 h) [µM] | IC50 (4T1 breast cancer cells; 4T1, 48 h, 4T1 cells in HICs, 48 h) [µM] | IC50 (4T1 breast cancer cells; 4T1, 48 h, 4T1 cells within blank cryogels, 48 h) [µM] | IC50 (4T1 breast cancer cells; 4T1, 72 h, 4T1 cells in HICs, 72 h) [µM] | IC50 (4T1 breast cancer cells; 4T1, 72 h, 4T1 cells within blank cryogels, 72 h) [µM] | IC50 (B16-F10 melanoma cells; B16-F10, 24 h, B16-F10 cells in HICs, 24 h) [µM] | IC50 (B16-F10 melanoma cells; B16-F10, 24 h, B16-F10 cells within blank cryogels, 24 h) [µM] | IC50 (B16-F10 melanoma cells; B16-F10, 48 h, B16-F10 cells in HICs, 48 h) [µM] | IC50 (B16-F10 melanoma cells; B16-F10, 48 h, B16-F10 cells within blank cryogels, 48 h) [µM] | IC50 (B16-F10 melanoma cells; B16-F10, 72 h, B16-F10 cells in HICs, 72 h) [µM] | IC50 (B16-F10 melanoma cells; B16-F10, 72 h, B16-F10 cells within blank cryogels, 72 h) [µM] | SMILES | increase in cancer cell resistance in HICs compared to blank cryogels (4T1 breast cancer cells; [1]) | increase in cancer cell resistance in HICs compared to blank cryogels (B16-F10 melanoma cells; [1])
1 | – | – | – | – | – | – | – | – | – | – | – | – | N.N.[Cl][Pt][Cl] [cisplatin] | up to 100 fold | up to 100 fold
2 | 56.8 | 1.08 | 50.7 | 0.55 | 47.2 | 0.33 | 55.7 | 0.91 | 46.2 | 0.37 | 47.2 | 0.38 | COc1cccc2c1C(=O)c1c(O)c3c(c(O)c1C2=O)C[C@@](O)(C(=O)CO)C[C@@H]3O[C@H]1C[C@H](N)[C@H](O)[C@H](C)O1 [doxorubicin] | – | –
